Results as given in patent US5223526A, “Pyrazole carboxanilide fungicides and use” (Monsanto Company, priority 1992, dated 1993).

What was measured:
Botrytis cinerea [1] = assay: Vine grey mold (grape berries); format: in vivo; conditions: average of six berries, 7-10 days; for pest or weed control at 50 ppm: grape berries treated with 50 ppm, read-out: % DISEASE CONTROL 50 ppm; for pest or weed control at 200 ppm: grape berries treated with 200 ppm, read-out: % DISEASE CONTROL 200 ppm
How it was run: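 Preventive berry test: compound at 50 or 200 ppm (acetone/water, 0.05% Tween 20) applied one day before inoculation with 10^6 spores/mL Botrytis conidia. After 7-10 days at 20 °C under 12 h light, infected surface area rated; disease control expressed as percent reduction from control mean; repeated-test values averaged.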

succinate dehydrogenase = target: T1, succinate dehydrogenase (Botrytis cinerea, UniProt A0A384J5E4+A0A384J8V8+A0A384JHJ5); assay: Enzyme inhibition: succinate dehydrogenase activity in Botrytis cinerea mitochondria (DCPIP reduction); format: biochemical; conditions: concentration required to inhibit the rate of DCPIP reduction by 50%; Botrytis cinerea isolate Nick mitochondria; read-out: I50 (μM conc.)
T1 construct: succinate-DCPIP reductase assay with KCN
How it was run: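 Crude mitochondria from Botrytis cinerea isolate Nick mycelia, prepared by bead-beating and differential centrifugation, started reactions. SDH activity followed as DCPIP reduction at 600 nm in 50 mM K-phosphate pH 7.2 with 1 mM KCN, 45 μM DCPIP, 17 mM succinate, 1% acetone. I50 from semilog inhibition plots, corrected for succinate-free rates.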

Botrytis cinerea [2] = assay: Eggplant grey mold; format: in vivo; design: scale not given here; conditions: inoculated 24 h later, rated after 3-4 days; for Disease Control Rating at 500 ppm: eggplant sprayed with 500 ppm; for Disease Control Rating at 20 ppm: eggplant sprayed with 20 ppm; for Disease Control Rating at 100 ppm: eggplant sprayed with 100 ppm
How it was run: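 Protective test: compound formulations (2:3 acetone:water, 0.5% Tween 20; 500, 100 or 20 ppm) sprayed on 14-18-day-old plants, with spore inoculum (4×10^6 spore/mL) applied a day later. Disease control rated on Botrytis lesions after 3-4 days at 23 °C and 100% humidity.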

Rhizoctonia solani = assay: Rice sheath blight; format: in vivo; design: scale not given here; conditions: inoculated two days later, rated after 7 days, average of five plants; for Disease Control Rating at 0.5 mg/mL: foliage and soil sprayed with 0.5 mg/mL; for Disease Control Rating at 0.02 mg/mL: foliage and soil sprayed with 0.02 mg/mL; for Disease Control Rating at 0.1 mg/mL: foliage and soil sprayed with 0.1 mg/mL
How it was run: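 Rice plants 11–15 days old had foliage and soil sprayed with 0.5, 0.1 or 0.02 mg/mL Compound A in water/acetone/Tween 20, then kept in flooded trays. Two days later, rice-grain Rhizoctonia solani inoculum went to plant bases; disease control scored versus untreated after 7 days at 25 °C, high humidity, averaging five plants.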

T1 sequence (A0A384J5E4 1-300): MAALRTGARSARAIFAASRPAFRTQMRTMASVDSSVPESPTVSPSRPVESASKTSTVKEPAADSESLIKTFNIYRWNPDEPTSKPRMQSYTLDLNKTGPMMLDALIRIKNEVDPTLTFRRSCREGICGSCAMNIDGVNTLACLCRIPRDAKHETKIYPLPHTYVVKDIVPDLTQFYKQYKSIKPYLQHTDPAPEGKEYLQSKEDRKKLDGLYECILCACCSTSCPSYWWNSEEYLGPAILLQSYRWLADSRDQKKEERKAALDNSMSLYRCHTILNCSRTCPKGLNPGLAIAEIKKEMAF
T1 sequence (A0A384J8V8 1-189): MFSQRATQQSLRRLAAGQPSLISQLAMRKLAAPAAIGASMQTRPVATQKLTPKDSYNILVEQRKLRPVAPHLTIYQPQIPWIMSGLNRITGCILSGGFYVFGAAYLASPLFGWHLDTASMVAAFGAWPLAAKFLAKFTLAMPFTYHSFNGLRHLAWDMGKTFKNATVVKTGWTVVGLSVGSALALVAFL
T1 sequence (A0A384JHJ5 1-192): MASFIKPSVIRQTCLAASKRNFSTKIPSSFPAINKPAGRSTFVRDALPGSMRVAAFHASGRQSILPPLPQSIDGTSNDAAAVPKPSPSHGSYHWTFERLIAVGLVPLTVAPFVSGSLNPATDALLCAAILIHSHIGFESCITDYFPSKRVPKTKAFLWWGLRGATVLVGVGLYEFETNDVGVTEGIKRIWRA
T1 sequence (A0A384K456 1-647 partner): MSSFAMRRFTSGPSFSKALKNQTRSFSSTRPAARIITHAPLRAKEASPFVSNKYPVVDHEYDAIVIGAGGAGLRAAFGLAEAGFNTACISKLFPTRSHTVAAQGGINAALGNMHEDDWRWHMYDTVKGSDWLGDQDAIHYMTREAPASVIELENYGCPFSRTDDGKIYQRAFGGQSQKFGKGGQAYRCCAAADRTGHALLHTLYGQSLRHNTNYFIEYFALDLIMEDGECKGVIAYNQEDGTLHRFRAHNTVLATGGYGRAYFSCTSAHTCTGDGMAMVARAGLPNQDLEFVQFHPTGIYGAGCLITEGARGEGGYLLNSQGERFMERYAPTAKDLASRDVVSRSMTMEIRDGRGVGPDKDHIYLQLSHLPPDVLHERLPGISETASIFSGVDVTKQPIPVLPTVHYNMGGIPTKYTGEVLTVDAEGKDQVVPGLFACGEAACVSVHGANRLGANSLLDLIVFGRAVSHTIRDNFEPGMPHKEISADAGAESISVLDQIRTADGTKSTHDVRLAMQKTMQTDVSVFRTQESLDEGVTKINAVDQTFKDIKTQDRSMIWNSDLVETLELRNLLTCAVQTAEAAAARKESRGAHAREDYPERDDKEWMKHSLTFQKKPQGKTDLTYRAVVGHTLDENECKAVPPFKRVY

Compound	pest or weed control at 50 ppm (Botrytis cinerea [1])	pest or weed control at 200 ppm (Botrytis cinerea [1])	IC50 (succinate dehydrogenase)	Disease Control Rating at 500 ppm (Botrytis cinerea [2])	Disease Control Rating at 0.5 mg/mL (Rhizoctonia solani)	Disease Control Rating at 20 ppm (Botrytis cinerea [2])	Disease Control Rating at 100 ppm (Botrytis cinerea [2])	Disease Control Rating at 0.02 mg/mL (Rhizoctonia solani)	Disease Control Rating at 0.1 mg/mL (Rhizoctonia solani)
Cn1cc(C(=O)Nc2ccccc2SC2CCCCC2)c(C(F)(F)F)n1 [Example 45, 1H-pyrazole-4-carboxamide, N-[2-(cyclohexylthio)phenyl]-1-methyl-3-(trifluoromethyl)-]	7%	12%	0.092 µM	0	0				
Cc1nn(C)cc1C(=O)Nc1ccccc1C1CCCCCCC1 [Example 41, 1H-pyrazole-4-carboxamide, N-(2-cyclooctylphenyl)-1,3-dimethyl-]	34%	37%	0.021 µM	3	3	0	0	1	3
Cc1nn(C)cc1C(=O)Nc1ccccc1[C@@H]1C[C@H]2CC[C@@H]1C2 (relative stereo) [Example 71, 1H-pyrazole-4-carboxamide, N-(2-bicyclo[2.2.1]hept-2-ylphenyl)-1,3-dimethyl-, exo-]	25%	57%	0.046 µM	0	3			1	3
Cn1cc(C(=O)Nc2ccccc2C2CCCC2)c(C(F)F)n1 [Example 7, 1H-pyrazole-4-carboxamide, N-(2-cyclopentylphenyl)-3-(difluoromethyl)-1-methyl-]	72%	86%	0.0072 µM	0	1				
C=CCn1cc(C(=O)Nc2ccccc2C2CCCCC2)c(C(F)F)n1 [Example 14, 1H-pyrazole-4-carboxamide, N-(2-cyclohexylphenyl)-3-(difluoromethyl)-1-(2-propenyl)-]	0%	0%	0.29 µM	0	1				
COc1ccc(C2CCCCC2)c(NC(=O)c2cn(C)nc2C(F)(F)F)c1 [Example 32, 1H-pyrazole-4-carboxamide, N-(2-cyclohexyl-5-methoxyphenyl)-1-methyl-3-(trifluoromethyl)-]	6%	5%	0.11 µM	2	0	0	1		
Cc1ccc(NC(=O)c2cn(C)nc2C(F)F)c(C2CCCCC2)c1 [Example 28, 1H-pyrazole-4-carboxamide, N-(2-cyclohexyl-4-methylphenyl)-3-(difluoromethyl)-1-methyl-]	37%	77%	0.01 µM	2	0	0	1		
Cn1cc(C(=O)Nc2ccccc2C2=CCSCC2)c(C(F)F)n1 [Example 144, 1H-pyrazole-4-carboxamide, 3-(difluoromethyl)-N-[2-(5,6-dihydro-2H-thiopyran-4-yl)phenyl]-1-methyl-]	15%	37%	0.037 µM	1	3	0	0		
Cn1nc(C(F)(F)F)c(C(=O)Nc2ccccc2[C@@H]2C[C@H]3CC[C@@H]2C3)c1F (relative stereo) [Example 85, 1H-pyrazole-4-Carboxamide, N-(2-bicyclo[2.2.1]hept-2-ylphenyl)-5-fluoro-1-methyl-3-(trifluoromethyl)-, exo-]	28%	99%	0.01 µM	2	3	0	1	1	3
Cn1cc(C(=O)Nc2ccccc2C2CCCCCCC2)c(C(F)F)n1 [Example 24, 1H-pyrazole-4-carboxamide, N-(2-cyclooctylphenyl)-3-(difluoromethyl)-1-methyl-]	87%	100%	0.0012 µM	2	3	1	2	3	3
Cn1cc(C(=O)Nc2ccccc2C2=CCOCC2)c(C(F)F)n1 [Example 104, 1H-pyrazole-4-carboxamide, 3-(difluoromethyl)-N-[2-(5,6-dihydro-2H-pyran-4-yl)phenyl]-1-methyl-]	0%	48%	0.77 µM	0	0				
Cn1nc(C(F)(F)F)c(C(=O)Nc2ccccc2C2CCCCC2)c1Cl [Example 87, 1H-pyrazole-4-carboxamide, 5-chloro-N-(2-cyclohexylphenyl)-1-methyl-3-(trifluoromethyl)-]	61%	46%	0.059 µM	0	2				
Cn1cc(C(=O)Nc2ccccc2CC2CCCCC2)c(C(F)F)n1 [Example 129, 1H-pyrazole-4-carboxamide, N-[2-(cyclohexylmethyl)phenyl]-3-(difluoromethyl)-1-methyl-]	7%	0%	0.11 µM	0	3	0	0	3	3
Cn1cc(C(=O)Nc2ccccc2[C@@H]2C[C@H]3CC[C@@H]2C3)c(I)n1 (relative stereo) [Example 58, 1H-pyrazole-4-carboxamide, N-(2-bicyclo[2.2.1]hept-2-ylphenyl)-3-iodo-1-methyl-, exo-]	51%	78%	0.0086 µM	2	2	0	0		
Cn1cc(C(=O)Nc2ccccc2C2CCCC2)c(C(F)(F)Cl)n1 [Example 90, 1H-pyrazole-4-carboxamide, 3-(chlorodifluoromethyl)-N-(2-cyclopentylphenyl)-1-methyl-]	0%	33%	0.79 µM	0	0	0	0		
C[C@@H]1CCC[C@@H](C)C1Oc1ccccc1NC(=O)c1cn(C)nc1C(F)(F)F (relative stereo) [Example 75, 1H-pyrazole-4-carboxamide, 1-methyl-N-[2-[(2,6-dimethylcyclohexyl)oxy]phenyl]-3-(trifluoromethyl)-, (1alpha,2alpha,6beta)-]	6%	0%	0.013 µM	0	0				
C[C@@H]1CCC[C@H](c2ccccc2NC(=O)c2cn(C)nc2C(F)(F)F)C1 (relative stereo) [Example 79, 1H-pyrazole-4-carboxamide, 1-methyl-N-[2-(3-methylcyclohexyl)phenyl]-3-(trifluoromethyl)-, cis-]	69%	97%	0.011 µM	2	3	0	1	3	3
Cn1cc(C(=O)Nc2ccccc2C2CCCCC2)c(C(F)F)n1 [Example 1, 1H-pyrazole-4-carboxamide, N-(2-cyclohexylphenyl)-3-(difluoromethyl)-1-methyl-]	92%	94%	0.0095 µM	3	0	3	3	2	0
